Measured values as given in ChEMBL document CHEMBL1201862, “PubChem BioAssay data set” (2004).
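Exposure lasted 48 hours, with cells grown in 96-well plates and compounds tested at five concentrations. GI50: concentration for 50% inhibition of growth.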 The source made the active and inactive calls. Rule as the data show it: active = GI50 up to about 1.1 µM and inactive = higher.

Tests used:
Experiment in all cases: NCI-60 cell line screen, 48 h
A498 = system: A498
A549 = system: A549
CCRF-CEM = system: CCRF-CEM
EKVX = system: EKVX
HCC 2998 = system: HCC 2998
HT-29 = system: HT-29
KM-20L2 = system: KM-20L2
LXFL 529 = system: LXFL 529
Malme-3M = system: Malme-3M
NCI-H23 = system: NCI-H23
NCI-H522 = system: NCI-H522
RPMI-8226 = system: RPMI-8226
SN12C = system: SN12C
U-251 = system: U-251
UACC-257 = system: UACC-257
COLO 205 = system: COLO 205
NCI-H226 = system: NCI-H226
SK-OV-3 = system: SK-OV-3
UACC-62 = system: UACC-62
HOP-92 = system: HOP-92

Row | SMILES | GI50 (A498) | GI50 (A549) | GI50 (CCRF-CEM) | GI50 (EKVX) | GI50 (HCC 2998) | GI50 (HT-29) | GI50 (KM-20L2) | GI50 (LXFL 529) | GI50 (Malme-3M) | GI50 (NCI-H23) | GI50 (NCI-H522) | GI50 (RPMI-8226) | GI50 (SN12C) | GI50 (U-251) | GI50 (UACC-257) | GI50 (COLO 205) | GI50 (NCI-H226) | GI50 (SK-OV-3) | GI50 (UACC-62) | GI50 (HOP-92)
1 | C=CCN1C2Cc3cc(OC)c(OC)cc3C1Cc1cc(OC)c(OC)cc12 | > 100 µM (inactive) | > 100 µM (inactive) | > 100 µM (inactive) | > 100 µM (inactive) | > 100 µM (inactive) | 69 µM (inactive) | > 100 µM (inactive) | > 100 µM (inactive) | > 100 µM (inactive) | 78.9 µM (inactive) | > 100 µM (inactive) | > 100 µM (inactive) | > 100 µM (inactive) | > 100 µM (inactive) | > 100 µM (inactive) | – | – | – | – | –
2 | CCOP(=O)(C/C(=N/NC(C)(C)C)C(=O)Nc1nc2ccc(C)cc2s1)OCC | > 100 µM (inactive) | > 100 µM (inactive) | > 100 µM (inactive) | > 100 µM (inactive) | > 100 µM (inactive) | > 100 µM (inactive) | > 100 µM (inactive) | > 100 µM (inactive) | > 100 µM (inactive) | > 100 µM (inactive) | > 100 µM (inactive) | – | > 100 µM (inactive) | > 100 µM (inactive) | > 100 µM (inactive) | > 100 µM (inactive) | > 100 µM (inactive) | > 100 µM (inactive) | > 100 µM (inactive) | –
3 | Cc1ccc(SSCCCS(=O)O)cc1 | 28.1 µM (inactive) | 31.9 µM (inactive) | – | 33.1 µM (inactive) | 60 µM (inactive) | 41.6 µM (inactive) | 31.7 µM (inactive) | 27.7 µM (inactive) | > 100 µM (inactive) | 39 µM (inactive) | 18.1 µM (inactive) | – | 21.6 µM (inactive) | 17.4 µM (inactive) | 50.2 µM (inactive) | 24 µM (inactive) | – | 49.2 µM (inactive) | 27.2 µM (inactive) | –
4 | Cc1ccc(C2(C)NC(=S)N(NC(N)=S)C2=S)cc1 (stereo unspecified) | > 100 µM (inactive) | > 100 µM (inactive) | 24.6 µM (inactive) | > 100 µM (inactive) | > 100 µM (inactive) | – | > 100 µM (inactive) | 71.8 µM (inactive) | > 100 µM (inactive) | > 100 µM (inactive) | – | 32.7 µM (inactive) | > 100 µM (inactive) | > 100 µM (inactive) | > 100 µM (inactive) | > 100 µM (inactive) | > 100 µM (inactive) | – | 43.2 µM (inactive) | –
5 | O=C1NC2(O)c3ccccc3C(=O)C2(O)N1c1ccccc1 (stereo unspecified) | – | > 100 µM (inactive) | > 100 µM (inactive) | > 100 µM (inactive) | > 100 µM (inactive) | > 100 µM (inactive) | > 100 µM (inactive) | > 100 µM (inactive) | > 100 µM (inactive) | > 100 µM (inactive) | > 100 µM (inactive) | > 100 µM (inactive) | – | > 100 µM (inactive) | > 100 µM (inactive) | > 100 µM (inactive) | – | > 100 µM (inactive) | > 100 µM (inactive) | > 100 µM (inactive)
6 | Cn1cnc([N+](=O)[O-])c1Sc1nnc(-c2ccc(Cl)cc2)n1C | 27.8 µM (inactive) | 48.9 µM (inactive) | 3.69 µM (inactive) | 5.79 µM (inactive) | 17.9 µM (inactive) | 15 µM (inactive) | – | 10.4 µM (inactive) | 10.6 µM (inactive) | 16.6 µM (inactive) | 3.17 µM (inactive) | 16.4 µM (inactive) | 14.7 µM (inactive) | 16.3 µM (inactive) | 12.7 µM (inactive) | 11.9 µM (inactive) | 21.2 µM (inactive) | 51.2 µM (inactive) | 15.5 µM (inactive) | 12.1 µM (inactive)
7 | O=C1CC(c2c[nH]c3ccccc23)C(=O)N1c1ccccc1 (stereo unspecified) | > 100 µM (inactive) | > 100 µM (inactive) | > 100 µM (inactive) | > 100 µM (inactive) | > 100 µM (inactive) | > 100 µM (inactive) | > 100 µM (inactive) | > 100 µM (inactive) | > 100 µM (inactive) | > 100 µM (inactive) | – | > 100 µM (inactive) | – | > 100 µM (inactive) | > 100 µM (inactive) | – | > 100 µM (inactive) | > 100 µM (inactive) | > 100 µM (inactive) | –
8 | O=C(Nc1cccc2c1C(=O)c1c(NC(=O)c3ccccc3)ccc(Nc3cccc4c3C(=O)c3ccccc3C4=O)c1C2=O)c1ccccc1 | > 100 µM (inactive) | > 100 µM (inactive) | > 100 µM (inactive) | > 100 µM (inactive) | > 100 µM (inactive) | – | > 100 µM (inactive) | > 100 µM (inactive) | > 100 µM (inactive) | – | > 100 µM (inactive) | > 100 µM (inactive) | > 100 µM (inactive) | > 100 µM (inactive) | > 100 µM (inactive) | > 100 µM (inactive) | > 100 µM (inactive) | > 100 µM (inactive) | > 100 µM (inactive) | –
9 | N#CCCN(c1ccc(-c2nnc(NC(=O)CNNC(=O)CC(=O)Nc3ccccc3)s2)cc1)S(=O)(=O)c1ccccc1 | > 100 µM (inactive) | 88.1 µM (inactive) | 90.8 µM (inactive) | > 100 µM (inactive) | > 100 µM (inactive) | > 100 µM (inactive) | – | 89.9 µM (inactive) | > 100 µM (inactive) | 76.6 µM (inactive) | 42.1 µM (inactive) | > 100 µM (inactive) | > 100 µM (inactive) | > 100 µM (inactive) | > 100 µM (inactive) | > 100 µM (inactive) | 59.3 µM (inactive) | > 100 µM (inactive) | 50.8 µM (inactive) | 79.6 µM (inactive)
10 | Cc1nc(-n2nc(-c3ccccc3)cc2-c2ccccc2)sc1C(=O)/C=C/c1ccc(/C=C/C(=O)c2sc(-n3nc(-c4ccccc4)cc3-c3ccccc3)nc2C)cc1 | – | 39 µM (inactive) | 30.6 µM (inactive) | 46.5 µM (inactive) | 20.1 µM (inactive) | 21.6 µM (inactive) | 19.1 µM (inactive) | 27.7 µM (inactive) | 19.1 µM (inactive) | 19.1 µM (inactive) | 17.8 µM (inactive) | – | 19.6 µM (inactive) | 19 µM (inactive) | 21 µM (inactive) | 20.2 µM (inactive) | 26.8 µM (inactive) | > 100 µM (inactive) | > 10 µM (inactive) | –
11 | O=[N+]([O-])c1ccc(C(O)/C(=N/O)c2nc3ccc(Cl)cc3nc2O)cc1 (stereo unspecified) | > 100 µM (inactive) | > 100 µM (inactive) | > 100 µM (inactive) | > 100 µM (inactive) | > 100 µM (inactive) | > 100 µM (inactive) | > 100 µM (inactive) | > 100 µM (inactive) | > 100 µM (inactive) | – | – | > 100 µM (inactive) | > 100 µM (inactive) | > 100 µM (inactive) | > 100 µM (inactive) | > 100 µM (inactive) | – | > 100 µM (inactive) | > 100 µM (inactive) | –
12 | O=C1CCC2(CCC(=O)NC2=O)C(=O)N1 | – | > 100 µM (inactive) | > 100 µM (inactive) | > 100 µM (inactive) | > 100 µM (inactive) | > 100 µM (inactive) | > 100 µM (inactive) | > 100 µM (inactive) | > 100 µM (inactive) | > 100 µM (inactive) | > 100 µM (inactive) | > 100 µM (inactive) | > 100 µM (inactive) | > 100 µM (inactive) | > 100 µM (inactive) | > 100 µM (inactive) | > 100 µM (inactive) | > 100 µM (inactive) | – | –
13 | C[C@@H]1O[C@@H](O[C@H]2CC[C@]3(C=O)[C@H]4CC[C@]5(C)[C@@H](c6ccc(=O)oc6)CC[C@]5(O)[C@@H]4CC[C@]3(O)C2)[C@H](O)[C@H](O)[C@H]1O[C@@H]1O[C@H](CO)[C@@H](O)[C@H](O)[C@H]1O [HELLEBRIN] | 0.0284 µM (active) | – | 0.00445 µM (active) | 0.0075 µM (active) | 0.0365 µM (active) | 0.0212 µM (active) | 0.0187 µM (active) | – | – | 0.00314 µM (active) | 0.00324 µM (active) | 0.0375 µM (active) | 0.00506 µM (active) | 0.0223 µM (active) | 0.0243 µM (active) | 0.0271 µM (active) | 0.0231 µM (active) | 0.0226 µM (active) | 0.027 µM (active) | 0.0402 µM (active)
14 | CCOC(=O)/C([O-])=C(\C(=O)OCC)[n+]1c(C)n(C)c2ccccc21 | > 100 µM (inactive) | > 100 µM (inactive) | > 100 µM (inactive) | > 100 µM (inactive) | > 100 µM (inactive) | > 100 µM (inactive) | > 100 µM (inactive) | > 100 µM (inactive) | > 100 µM (inactive) | > 100 µM (inactive) | > 100 µM (inactive) | > 100 µM (inactive) | – | > 100 µM (inactive) | > 100 µM (inactive) | > 100 µM (inactive) | > 100 µM (inactive) | > 100 µM (inactive) | > 100 µM (inactive) | –
15 | CC(=O)N(C(C)=O)c1ncc(-n2nc(-c3ccccc3)cc2-c2ccccc2)c(-c2ccccc2)n1 | > 10 µM (inactive) | > 10 µM (inactive) | 9.75 µM (inactive) | > 10 µM (inactive) | > 10 µM (inactive) | 4.65 µM (inactive) | – | – | > 10 µM (inactive) | > 10 µM (inactive) | > 10 µM (inactive) | > 10 µM (inactive) | > 10 µM (inactive) | > 10 µM (inactive) | > 10 µM (inactive) | > 10 µM (inactive) | > 10 µM (inactive) | > 10 µM (inactive) | > 10 µM (inactive) | > 10 µM (inactive)
